These results are taken from ChEMBL document CHEMBL2074199, “The MRP4/ABCC4 gene encodes a novel apical organic anion transporter in human kidney proximal tubules: putative efflux pump for urinary cAMP and cGMP” (J Am Soc Nephrol, 2002).

Holding throughout (format): functional, cell membranes, Membrane vesicle
Data set [1] has as its target T1, MRP4 (ABCC4) (Homo sapiens, UniProt O15439).
T1 sequence (O15439 whole entry): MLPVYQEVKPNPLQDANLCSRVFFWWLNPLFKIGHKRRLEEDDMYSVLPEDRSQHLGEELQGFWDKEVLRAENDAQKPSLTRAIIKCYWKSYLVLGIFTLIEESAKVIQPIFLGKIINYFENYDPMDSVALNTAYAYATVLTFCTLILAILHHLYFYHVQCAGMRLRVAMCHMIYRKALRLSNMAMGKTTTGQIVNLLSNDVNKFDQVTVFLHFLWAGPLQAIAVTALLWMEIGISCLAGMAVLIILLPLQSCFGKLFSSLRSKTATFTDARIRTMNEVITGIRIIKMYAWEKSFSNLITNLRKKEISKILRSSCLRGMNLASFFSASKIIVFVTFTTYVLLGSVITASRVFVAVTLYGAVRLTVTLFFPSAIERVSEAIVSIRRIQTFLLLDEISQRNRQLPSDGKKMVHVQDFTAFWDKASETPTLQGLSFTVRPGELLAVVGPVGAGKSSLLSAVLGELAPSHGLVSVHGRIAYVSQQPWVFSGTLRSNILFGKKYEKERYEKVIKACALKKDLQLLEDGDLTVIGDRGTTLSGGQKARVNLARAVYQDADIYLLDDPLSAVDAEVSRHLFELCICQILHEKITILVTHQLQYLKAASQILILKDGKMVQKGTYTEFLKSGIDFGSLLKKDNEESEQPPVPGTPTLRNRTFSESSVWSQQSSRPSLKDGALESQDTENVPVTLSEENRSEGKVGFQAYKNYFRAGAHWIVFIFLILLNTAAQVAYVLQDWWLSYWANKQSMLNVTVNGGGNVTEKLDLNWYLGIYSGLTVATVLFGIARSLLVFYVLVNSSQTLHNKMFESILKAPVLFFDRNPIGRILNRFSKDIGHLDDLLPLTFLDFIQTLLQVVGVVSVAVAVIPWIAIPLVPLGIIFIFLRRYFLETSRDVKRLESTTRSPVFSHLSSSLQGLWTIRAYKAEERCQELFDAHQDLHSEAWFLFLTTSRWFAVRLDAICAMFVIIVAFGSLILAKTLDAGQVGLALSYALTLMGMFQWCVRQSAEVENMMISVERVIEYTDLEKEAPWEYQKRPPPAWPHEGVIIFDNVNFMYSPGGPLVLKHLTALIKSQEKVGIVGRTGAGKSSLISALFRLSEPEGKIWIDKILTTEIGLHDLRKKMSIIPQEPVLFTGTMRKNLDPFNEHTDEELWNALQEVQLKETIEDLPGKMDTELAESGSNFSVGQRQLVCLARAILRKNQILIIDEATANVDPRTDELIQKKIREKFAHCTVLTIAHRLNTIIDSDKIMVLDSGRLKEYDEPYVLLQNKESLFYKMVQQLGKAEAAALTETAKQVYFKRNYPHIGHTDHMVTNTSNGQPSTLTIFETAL
Nature of the data set: TP_TRANSPORTER: inhibition of MTX uptake (MTX: 0.1 uM, p-Nitropenyl-beta-D-glucuronide: 1000 uM) in membrane vesicles from MRP4-expressing Sf9 cells. On the set-up: scale not given: the % may be the effect or the level left. The conditions noted are these: probe methotrexate 0.1 uM, read-out: Activity.

Data set [2] concerns the target T1, MRP4 (ABCC4). Nature of the data set: TP_TRANSPORTER: inhibition of Methotrexate uptake (MTX: 0.1 uM, alpha-naphthyl beta-D-glucuronide: 1000 uM) in membrane vesicles from MRP4-expressing Sf9 cells. Conditions: probe methotrexate 0.1 uM, read-out: Activity. On the set-up: scale not given: the % may be the effect or the level left.
For data set [3], the target named is T2, ATP-binding cassette sub-family C member 4 (Homo sapiens, UniProt O15439).
T2 sequence (O15439 whole entry): T1 sequence (O15439 whole entry)
Nature of the data set: TP_TRANSPORTER: inhibition of cGMP uptake ([…]: 1 uM, Probenecid: 1000 uM) in membrane vesicles from MRP4-expressing Sf9 cells. On the set-up: scale not given: the % may be the effect or the level left. The conditions noted are these: sf9, 1000 µM.

For data set [4], the target named is T2, ATP-binding cassette sub-family C member 4. Nature of the data set: TP_TRANSPORTER: inhibition of cGMP uptake ([…]: 1 uM, Dipyridamole: 1 uM) in membrane vesicles from MRP4-expressing Sf9 cells. Further details: scale not given: the % may be the effect or the level left. The conditions noted are these: sf9, 1 µM.
The target in data set [5] is T1, MRP4 (ABCC4). Nature of the data set: TP_TRANSPORTER: inhibition of Methotrexate uptake (MTX: 0.1 uM, DNP-SG: 100 uM) in membrane vesicles from MRP4-expressing Sf9 cells. Further details: scale not given: the % may be the effect or the level left. The conditions noted are these: probe methotrexate 0.1 uM, read-out: Activity.
Data set [6] has as its target T1, MRP4 (ABCC4). Nature of the data set: TP_TRANSPORTER: inhibition of MTX uptake (MTX: 0.1 uM, NAc-DNP-Cys: 100 uM) in membrane vesicles from MRP4-expressing Sf9 cells. Further details: scale not given: the % may be the effect or the level left. Conditions: probe methotrexate 0.1 uM, read-out: Activity.
The target of data set [7] is T1, MRP4 (ABCC4). Nature of the data set: TP_TRANSPORTER: inhibition of MTX uptake (MTX: 0.1 uM, E217betaG: 100 uM) in membrane vesicles from MRP4-expressing Sf9 cells. Further details: scale not given: the % may be the effect or the level left. The conditions noted are these: probe methotrexate 0.1 uM, read-out: Activity.
Substrate in data set [8]: CN(Cc1cnc2nc(N)nc(N)c2n1)c1ccc(C(=O)N[C@@H](CCC(=O)O)C(=O)O)cc1
Nature of the data set: TP_TRANSPORTER: uptake in membrane vesicles from MRP4-expressing Sf9 cells.

For `O=C(O)[C@H]1O[C@@H](Oc2ccc([N+](=O)[O-])cc2)[C@H](O)[C@@H](O)[C@@H]1O`, the activity at 1000 µM in data set [1] is 25%.

As to `O=C(O)[C@H]1O[C@@H](Oc2cccc3ccccc23)[C@H](O)[C@@H](O)[C@@H]1O`, in data set [2], the activity at 1000 µM came out at 18%.

On to `CCCN(CCC)S(=O)(=O)c1ccc(C(=O)O)cc1` [PROBENECID], for which the Activity in data set [3] amounted to 10%.

In the case of `OCCN(CCO)c1nc(N2CCCCC2)c2nc(N(CCO)CCO)nc(N3CCCCC3)c2n1` [DIPYRIDAMOLE], the Activity in data set [4] was found to be 9%.

Take `N[C@@H](CCC(=O)N[C@H](CSc1ccc([N+](=O)[O-])cc1[N+](=O)[O-])C(=O)NCC(=O)O)C(=O)O`: the activity at 100 µM in data set [5] came out at 3%.

Regarding `CC(=O)N[C@@H](CSc1ccc([N+](=O)[O-])cc1[N+](=O)[O-])C(=O)O`, in data set [6], the activity at 100 µM stood at 29%.

Regarding `C[C@]12CC[C@@H]3c4ccc(O)cc4CC[C@H]3[C@@H]1CC[C@@H]2O[C@@H]1O[C@H](C(=O)O)[C@@H](O)[C@H](O)[C@H]1O` [ESTRADIOL 17B GLUCURONIDE], the activity at 100 µM in data set [7] worked out at 75%.

B1: ATP-binding cassette sub-family C member 4 (Homo sapiens) (protein)
chain: T1 sequence (O15439 whole entry)
Turning to B1, the Km in data set [8] came out at 1300 µM.
